Among the data in patent publication US9896445B2, “Heterocyclic inhibitors of ERK1 and ERK2 and their use in the treatment of cancer” (Asana Biosciences, LLC, priority 2015, dated 2018) are IC50 values, retold here.

One assay concerns the target T1, ERK2 (Homo sapiens, UniProt P28482).
T1 construct: purchased Jubilant Biosys
Description: ERK2 HTRF (biochemical) assay. Conditions: HTRF. The method, then: (§1) ERK1 and ERK2 HTRF (Biochemical) Assays
These assays employed a homogeneous time resolved fluorescence (HTRF) technique. The compounds were serially diluted by half-log with concentrations ranging from 0.0005 to 10 uM in the assay buffer (50 mM Tris pH=7.5, 1 mM EGTA, 2 mM DTT, 10 mM MgCl2, 0.1% Tween-20) and 20 uL of substrate-ATP mix [1 uM Biotin-LC-Myelin Basic Protein (MBP) derivatized Peptide (Anaspec)-24 uM ATP (Sigma)] was added to each well of the assay plate. Then 10 uL of enzyme mix [25 nM ERK1 or ERK2 (Jubilant Biosys) in assay buffer] was added to each well. The plate was incubated at room temperature for 60 min with shaking. The HTRF mix [625 nM LANCE® Ultra Europium-anti-phospho-MBP (Perkin Elmer) and 2 nM Phycolink® Streptavidin-Allophycocyanin (SA-APC) (Prozyme) in HTRF buffer (50 mM Tris-HCl pH=7.5, 100 mM NaCl, 0.1% BSA, 0.05% Tween20, 0.5 mM EDTA)] was prepared and 75 uL of this mix was added to the HTRF plate. After incubation for 60 min at room temperature, 10 uL of the reaction mixture was transferred to the HTRF assay plate and incubated for 45 min at room temperature with shaking. Plate was read using Pherastar in HTRF mode (excitation 337 nm, emission 665 & 620 nm). The IC50 values (half maximal inhibitory concentration values) were subsequently determined using a sigmoidal dose-response curve (variable slope) in GraphPad Prism® 5 software.
(Time-resolved FRET reads energy transfer from a long-lived donor to a nearby acceptor.)

The next assay has as its target T2, ERK1 (Homo sapiens, UniProt P27361).
T2 construct: purchased Jubilant Biosys
The assay is described as follows: ERK1 HTRF (biochemical) assay. To be noted: HTRF. The protocol: as §1
These assays employed a homogeneous time resolved fluorescence (HTRF) technique. […] The plate was incubated at room temperature for 60 min with shaking. […] The IC50 values (half maximal inhibitory concentration values) were subsequently determined using a sigmoidal dose-response curve (variable slope) in GraphPad Prism® 5 software.

T2 sequence (P27361 whole entry): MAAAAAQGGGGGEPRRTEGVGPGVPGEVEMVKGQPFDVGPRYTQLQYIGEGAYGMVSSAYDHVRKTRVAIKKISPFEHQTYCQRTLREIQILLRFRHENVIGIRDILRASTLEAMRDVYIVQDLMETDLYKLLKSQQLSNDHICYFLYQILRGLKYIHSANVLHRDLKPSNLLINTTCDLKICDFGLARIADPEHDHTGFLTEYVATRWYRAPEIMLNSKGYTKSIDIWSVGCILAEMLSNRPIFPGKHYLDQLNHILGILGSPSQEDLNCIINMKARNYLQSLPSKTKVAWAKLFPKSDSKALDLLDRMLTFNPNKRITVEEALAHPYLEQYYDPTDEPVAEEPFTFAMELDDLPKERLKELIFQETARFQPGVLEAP
T1 sequence (P28482 whole entry): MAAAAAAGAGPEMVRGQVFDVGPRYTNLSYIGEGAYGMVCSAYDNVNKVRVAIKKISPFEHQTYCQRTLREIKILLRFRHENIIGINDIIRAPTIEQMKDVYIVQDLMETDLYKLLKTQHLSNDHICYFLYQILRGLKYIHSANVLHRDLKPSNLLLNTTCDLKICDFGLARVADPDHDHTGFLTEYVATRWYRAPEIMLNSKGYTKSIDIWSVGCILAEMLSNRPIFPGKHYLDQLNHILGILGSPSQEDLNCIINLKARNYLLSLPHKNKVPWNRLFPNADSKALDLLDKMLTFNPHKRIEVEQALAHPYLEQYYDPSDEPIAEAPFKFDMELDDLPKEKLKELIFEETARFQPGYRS

As to `Cc1cnc(NC2CCOCC2)nc1-n1cnc(C(=O)NC(CN)c2cccc(Cl)c2)c1` (racemic) [Compound 225, N-(2-Amino-1-(3-chlorophenyl)ethyl)-1-(5-methyl-2-((tetrahydro-2H-pyran-4-yl)amino)pyrimidin-4-yl)-1H-imidazole-4-carboxamide], the results for the IC50 on ERK2 and against ERK1 were not above 50 nM and less than 50 nM, respectively.

Regarding `Cc1cnc(NC2CCOCC2)nc1-n1cnc(C(=O)N[C@@H](CN)c2cccc(Cl)c2)c1` (single isomer, unassigned) [Compound 225b], the IC50 (commonly the concentration at which inhibition is half-maximal) was not above 50 nM against ERK2 and less than 50 nM on ERK1. The matching figures for `Cc1cnc(Nc2ccc(F)cc2)cc1-n1cnc(C(=O)NC(CN)c2ccccc2)c1` (single isomer, unassigned) [Compound 228, N-(2-amino-1-phenylethyl)-1-(2-((4-fluorophenyl)-amino)-5-methyl-pyridin-4-yl)-1H-imidazole-4-carboxamide]: 100 to 500 nM and 100 to 500 nM. On the same counts, the results for `Cc1cnc(NC2CCOCC2)nc1-n1cnc(C(=O)NC(c2cccc(Cl)c2)C(C)O)c1` (single isomer, unassigned) [Compound 252, N-(1-(3-chlorophenyl)-2-hydroxypropyl)-1-(5-methyl-2-((tetrahydro-2H-pyran-4-yl)amino)-pyrimidin-4-yl)-1H-imidazole-4-carboxamide] are not above 50 nM and less than 50 nM. The matching figures for `Cc1cnc(NC2CCOCC2)nc1-n1cnc(C(=O)NC(CN)c2ccc(Cl)s2)c1` (single isomer, unassigned; enantiomer #1) [Example 290, N-(2-amino-1-(5-chlorothiophen-2-yl)ethyl)-1-(5-methyl-2-((tetrahydro-2H-pyran-4-yl)amino)-pyrimidin-4-yl)-1H-imidazole-4-carboxamide (enantiomer #1)]: not above 50 nM and less than 50 nM. For `Cc1cnc(NC2CCOCC2)nc1-n1cnc(C(=O)NC(CN)c2ccc(Cl)s2)c1` (single isomer, unassigned; enantiomer #2) [Example 291, N-(2-amino-1-(5-chlorothiophen-2-yl)ethyl)-1-(5-methyl-2-((tetrahydro-2H-pyran-4-yl)amino)-pyrimidin-4-yl)-1H-imidazole-4-carboxamide (enantiomer #2)], the IC50 at ERK2 is not above 50 nM; at ERK1, less than 50 nM.

With `O=C(Nc1cnn(-c2ccnc(Nc3ccccc3Cl)n2)c1)N[C@H](CO)c1cccc(Cl)c1` [Compound 1, (S)-1-(1-(3-chlorophenyl)-2-hydroxyethyl)-3-(1-(2-((2-chloro-phenyl)amino)pyrimidin-4-yl)-1H-pyrazol-4-yl)urea], the figures for the IC50 against ERK2 and against ERK1 were not above 50 nM and less than 50 nM, respectively. For the compound `Cc1cnc(Nc2ccccc2Cl)nc1-n1cc(NC(=O)N[C@H](CO)c2cccc(Cl)c2)cn1` [Compound 2], the values for the 50% inhibitory concentration (IC50) at ERK2 and on ERK1 were 50 to 100 nM and less than 50 nM, respectively. With `Cc1cnc(NC2CC2)nc1-n1cc(NC(=O)N[C@H](CO)c2cccc(Cl)c2)cn1` [Compound 3, (S)-1-(1-(3-chlorophenyl)-2-hydroxyethyl)-3-(1-(2-(cyclopropyl-amino)-5-methyl-pyrimidin-4-yl)-1H-pyrazol-4-yl)urea], the IC50 at ERK2 and on ERK1 was 50 to 100 nM in each case.

`O=C(Nc1cnn(-c2ccnc(Nc3ccccc3Cl)n2)c1)N[C@@H](CO)c1ccccc1` [Compound 4, (R)-1-(1-(2-((2-chlorophenyl)amino)pyrimidin-4-yl)-1H-pyrazol-4-yl)-3-(2-hydroxy-1-phenylethyl)urea]: the IC50 on ERK2 and on ERK1 was more than 2500 nM in each case. In the case of `CC(NC(=O)Nc1cnn(-c2ccnc(Nc3ccccc3Cl)n2)c1)c1cccc(Cl)c1` (stereo not shown) [Compound 5, 1-(1-(2-((2-chlorophenyl)amino)pyrimidin-4-yl)-1H-pyrazol-4-yl)-3-(1-(3-chloro-phenyl)ethyl)urea], the IC50 on ERK1 fell in the range of 100 to 500 nM. On to `O=C(NCc1cccc(Cl)c1)Nc1cnn(-c2ccnc(Nc3ccccc3Cl)n2)c1` [Compound 9, 1-(3-chlorobenzyl)-3-(1-(2-((2-chloro-phenyl)amino)pyrimidin-4-yl)-1H-pyrazol-4-yl)urea], for which the IC50 against ERK2 was more than 2500 nM.

On ERK2, `C[C@@H](NC(=O)Nc1cnn(-c2ccnc(Nc3ccccc3Cl)n2)c1)c1cccc(Cl)c1` [Compound 10] registered an IC50 of more than 2500 nM. Still for that read-out and setting: the figure for `Cc1c(NC(=O)N[C@H](CO)c2cccc(Cl)c2)cnn1-c1ccnc(Nc2ccccc2Cl)n1` [Compound 11, (S)-1-(1-(3-chlorophenyl)-2-hydroxyethyl)-3-(1-(2-((2-chloro-phenyl)amino)pyrimidin-4-yl)-5-methyl-1H-pyrazol-4-yl)urea] is more than 2500 nM. `COc1cc(N2CCN(C(C)=O)CC2)ccc1Nc1nccc(-n2cc(NC(=O)N[C@H](CO)c3cccc(Cl)c3)cn2)n1` [Compound 15, (S)-1-(1-(2-((4-(4-acetylpiperazin-1-yl)-2-methoxy-phenyl)amino)pyrimidin-4-yl)-1H-pyrazol-4-yl)-3-(1-(3-chlorophenyl)-2-hydroxyethyl)urea] gave an IC50 against ERK1 of 50 to 100 nM. Same read-out and setting: the figure for `Cc1cnc(Nc2ccc(F)cc2Cl)nc1-n1cc(NC(=O)N[C@H](CO)c2cccc(Cl)c2)cn1` [Compound 25, (S)-1-(1-(2-((2-chloro-4-fluoro-phenyl)amino)-5-methylpyrimidin-4-yl)-1H-pyrazol-4-yl)-3-(1-(3-chloro-phenyl)-2-hydroxy-ethyl)urea] is less than 50 nM; for `Cc1cnc(Nc2ccc(F)cc2Cl)nc1-n1cc(NC(=O)N[C@H](CO)c2ccc(F)c(Cl)c2)cn1` [Compound 26, (S)-1-(1-(3-chloro-4-fluorophenyl)-2-hydroxyethyl)-3-(1-(2-((2-chloro-4-fluorophenyl)amino)-5-methyl-pyrimidin-4-yl)-1H-pyrazol-4-yl)urea] it is less than 50 nM. Regarding `Cc1cnc(Nc2ccc3c(c2)OCO3)nc1-n1cc(C(=O)N[C@H](CO)c2cccc(Cl)c2)cn1` [Compound 50, (S)-1-(2-(benzo[d][1,3]dioxol-5-ylamino)-5-methylpyrimidin-4-yl)-N-(1-(3-chloro-phenyl)-2-hydroxy-ethyl)-1H-pyrazole-4-carboxamide], at ERK2, the 50% inhibitory concentration (IC50) is not above 50 nM. The same measure, in the same setting: under `O=C(NC(CO)c1cccc(Cl)c1)c1cnn(-c2ccnc(Nc3ccccc3)n2)c1` (stereo not shown) [Compound 52, N-(1-(3-chloro-phenyl)-2-hydroxy-ethyl)-1-(2-(phenyl-amino)pyrimidin-4-yl)-1H-pyrazole-4-carboxamide] stands 100 to 500 nM; under `Cc1cnc(Nc2ccc(F)cc2Cl)nc1-n1cc(NC(=O)N[C@@H](CO)c2cccc(Cl)c2)cn1` [Compound 56, (R)-1-(1-(2-((2-chloro-4-fluoro-phenyl)amino)-5-methylpyrimidin-4-yl)-1H-pyrazol-4-yl)-3-(1-(3-chloro-phenyl)-2-hydroxy-ethyl)urea], 100 to 500 nM. On the same count and under the same terms, under `Cc1cnc(Nc2ccccc2Cl)nc1-n1cc(NC(=O)N[C@@H](CO)c2cccc(Cl)c2)cn1` [Compound 61, (R)-1-(1-(3-chlorophenyl)-2-hydroxyethyl)-3-(1-(2-((2-chloro-phenyl)amino)-5-methylpyrimidin-4-yl)-1H-pyrazol-4-yl)urea] stands 500 to 2500 nM; under `Cc1cnc(Nc2ccc3occc3c2)nc1-n1ccc(C(=O)NC(CO)c2ccccc2)c1` (stereo not shown) [Compound 65, 1-(2-(benzofuran-5-ylamino)-5-methylpyrimidin-4-yl)-N-(2-hydroxy-1-phenylethyl)-1H-pyrrole-3-carboxamide], not above 50 nM.

Consider `Cc1cnc(Nc2ccc(F)cc2Cl)nc1-n1ccc(C(=O)N[C@@H](CN(C)C)c2ccccc2)c1` [Compound 97, (R)-1-(2-((2-chloro-4-fluorophenyl)amino)-5-methy-lpyrimidin-4-yl)-N-(2-(dimethylamino)-1-phenylethyl)-1H-pyrrole-3-carboxamide], for which, on ERK2, the IC50 was 100 to 500 nM. The same measure, in the same setting: under `Cc1cnc(Nc2ccc3ocnc3c2)nc1-n1ccc(C(=O)NC(CO)c2ccccc2)c1` (stereo not shown) [Compound 104] stands 100 to 500 nM; under `NCC(Cc1ccccc1)NC(=O)c1ccn(-c2ccnc(Nc3ccc(F)cc3)c2)c1` (stereo not shown) [Compound 119, N-(1-amino-3-phenylpropan-2-yl)-1-(2-((4-fluoro-phenyl)amino)pyridin-4-yl)-1H-pyrrole-3-carboxamide], 100 to 500 nM; under `Cc1cnc(NC2CCOCC2)nc1-n1ccc(C(=O)NC(CO)c2ccccc2)c1` (stereo not shown) [Compound 120, N-(2-hydroxy-1-phenylethyl)-1-(5-methyl-2-((tetrahydro-2H-pyran-4-yl)amino)pyrimidin-4-yl)-1H-pyrrole-3-carboxamide], 100 to 500 nM.

Consider `O=C(NC(CO)c1ccccc1)c1ccn(-c2nc(Nc3ccc(F)cc3Cl)ncc2C(F)(F)F)c1` (stereo not shown) [Compound 122, 1-(2-((2-chloro-4-fluorophenyl)amino)-5-(trifluoro-methyl)pyrimidin-4-yl)-N-(2-hydroxy-1-phenylethyl)-1H-pyrrole-3-carboxamide], for which the IC50 at ERK2 was more than 2500 nM.
